From ChEMBL document CHEMBL3044572, “Discovery of 2-(4-cyano-3-trifluoromethylphenyl amino)-4-(4-quinazolinyloxy)-6-piperazinyl(piperidinyl)-s-triazines as potential antibacterial agents” (2012)
Converted amounts (≈) assume the structure as drawn. The source made the active and inactive calls. The calls are words filed in the database; no cut-off is given here.

Experiments:
[1] = tested on: Mycobacterium tuberculosis; experiment: Antimicrobial activity against Mycobacterium tuberculosis H37Rv by BACTEC MGIT method; assay type: functional; settings: for MIC: Mycobacterium tuberculosis, H37Rv
Pseudomonas aeruginosa [2] = experiment: Antimicrobial activity against Pseudomonas aeruginosa MTCC 741 by paper disk diffusion method; assay type: functional
Klebsiella pneumoniae [3] = experiment: Antimicrobial activity against Klebsiella pneumoniae MTCC 109 by agar streak dilution method; assay type: functional
Bacillus cereus [4] = experiment: Antimicrobial activity against Bacillus cereus MTCC 619 by agar streak dilution method; assay type: functional
Aspergillus fumigatus [5] = experiment: Antimicrobial activity against Aspergillus fumigatus MTCC 343 by agar streak dilution method; assay type: functional
Proteus vulgaris [6] = experiment: Antimicrobial activity against Proteus vulgaris MTCC 1771 by agar streak dilution method; assay type: functional
Staphylococcus aureus [7] = experiment: Antimicrobial activity against Staphylococcus aureus MTCC 96 by paper-disk diffusion method; assay type: functional
Salmonella typhi [8] = experiment: Antimicrobial activity against Salmonella enterica subsp. enterica serovar Typhi MTCC 733 by paper disk diffusion method; assay type: functional
Aspergillus clavatus [9] = experiment: Antimicrobial activity against Aspergillus clavatus MTCC 1323 by agar streak dilution method; assay type: functional
Proteus vulgaris [10] = experiment: Antimicrobial activity against Proteus vulgaris MTCC 1771 by paper disk diffusion method; assay type: functional
Escherichia coli [11] = experiment: Antimicrobial activity against Escherichia coli MTCC 739 by agar streak dilution method; assay type: functional
Shigella flexneri [12] = experiment: Antimicrobial activity against Shigella flexneri MTCC 1457 by agar streak dilution method; assay type: functional
Pseudomonas aeruginosa [13] = experiment: Antimicrobial activity against Pseudomonas aeruginosa MTCC 741 at 100 ug/ml by paper disk diffusion method; assay type: functional, organism-based
Pseudomonas aeruginosa [14] = experiment: Antimicrobial activity against Pseudomonas aeruginosa MTCC 741 by agar streak dilution method; assay type: functional
Shigella flexneri [15] = experiment: Antimicrobial activity against Shigella flexneri MTCC 1457 by paper disk diffusion method; assay type: functional
Aspergillus fumigatus [16] = experiment: Antimicrobial activity against Aspergillus fumigatus MTCC 343 by paper-disk diffusion method; assay type: functional
Salmonella typhi [17] = experiment: Antimicrobial activity against Salmonella enterica subsp. enterica serovar Typhi MTCC 733 by agar streak dilution method; assay type: functional
Bacillus cereus [18] = experiment: Antimicrobial activity against Bacillus cereus MTCC 619 by paper disk diffusion method; assay type: functional
Staphylococcus aureus [19] = experiment: Antimicrobial activity against Staphylococcus aureus MTCC 96 by agar streak dilution method; assay type: functional
[20] = tested on: Mycobacterium tuberculosis; experiment: Antimicrobial activity against Mycobacterium tuberculosis H37Rv by Lowenstein and Jensen method; assay type: functional; settings: for MIC: Mycobacterium tuberculosis, H37Rv
Aspergillus clavatus [21] = experiment: Antimicrobial activity against Aspergillus clavatus MTCC 1323 by paper disk diffusion method; assay type: functional
Klebsiella pneumoniae [22] = experiment: Antimicrobial activity against Klebsiella pneumoniae MTCC 109 by paper disk diffusion method; assay type: functional
Candida albicans [23] = experiment: Antimicrobial activity against Candida albicans MTCC 183 by paper-disk diffusion method; assay type: functional
Escherichia coli [24] = experiment: Antimicrobial activity against Escherichia coli MTCC 739 by paper disk diffusion method; assay type: functional
Aspergillus niger [25] = experiment: Antimicrobial activity against Aspergillus niger MTCC 282 by paper-disk diffusion method; assay type: functional
Candida albicans [26] = experiment: Antimicrobial activity against Candida albicans MTCC 183 by agar streak dilution method; assay type: functional
Aspergillus niger [27] = experiment: Antimicrobial activity against Aspergillus niger MTCC 282 by agar streak dilution method; assay type: functional
[28] = tested on: Mycobacterium tuberculosis; experiment: Antimicrobial activity against Mycobacterium tuberculosis H37Rv at 100 ug/ml by BACTEC MGIT method; assay type: functional, organism-based

`CC[C@@H](CO)NCCN[C@@H](CC)CO` [ETHAMBUTOL] was tested, and the “inhibition (INH)” value [1] was 99% and the MIC [1] was 3.12 µg/mL (≈ 15.3 µM).

`CC1CC(C)CN(c2nc(Nc3ccc(C#N)c(C(F)(F)F)c3)nc(Oc3ncnc4ccccc34)n2)C1` (configuration not stated) was tested, and the “inhibition zone (IZ)” value (Pseudomonas aeruginosa [2]) was 27 mm, the MIC (Klebsiella pneumoniae [3]) was 6.25 µg/mL (≈ 12 µM) and the MIC (Bacillus cereus [4]) was 12.5 µg/mL (≈ 24 µM). The MIC (Aspergillus fumigatus [5]) was 25 µg/mL (≈ 48 µM), the MIC (Proteus vulgaris [6]) was 6.25 µg/mL (≈ 12 µM) and the “inhibition zone (IZ)” value (Staphylococcus aureus [7]) was 27 mm. The “inhibition zone (IZ)” value (Salmonella typhi [8]) was 26 mm, the MIC (Aspergillus clavatus [9]) was 6.25 µg/mL (≈ 12 µM) and the “inhibition zone (IZ)” value (Proteus vulgaris [10]) was 26 mm. The MIC (Escherichia coli [11]) was 6.25 µg/mL (≈ 12 µM), the MIC (Shigella flexneri [12]) was 100 µg/mL (≈ 192 µM) and the “inhibition zone (IZ)” value (Pseudomonas aeruginosa [13]) was “inactive”. For the same compound, the MIC (Pseudomonas aeruginosa [14]) was 12.5 µg/mL (≈ 24 µM), the “inhibition zone (IZ)” value (Shigella flexneri [15]) was 22 mm and the “inhibition zone (IZ)” value (Aspergillus fumigatus [16]) was 23 mm. For the same compound, the MIC (Salmonella typhi [17]) was 25 µg/mL (≈ 48 µM), the “inhibition (INH)” value [1] was 99% and the MIC [1] was 6.25 µg/mL (≈ 12 µM). The “inhibition zone (IZ)” value (Bacillus cereus [18]) was 26 mm, the MIC (Staphylococcus aureus [19]) was 6.25 µg/mL (≈ 12 µM) and the “inhibition (percent inhibition)” value [20] was 99%. For the same compound, the MIC [20] was 6.25 µg/mL (≈ 12 µM), the “inhibition zone (IZ)” value (Aspergillus clavatus [21]) was 25 mm and the “inhibition zone (IZ)” value (Klebsiella pneumoniae [22]) was 26 mm. For the same compound, the “inhibition zone (IZ)” value (Candida albicans [23]) was 24 mm, the “inhibition zone (IZ)” value (Escherichia coli [24]) was 27 mm and the “inhibition zone (IZ)” value (Aspergillus niger [25]) was 22 mm. For the same compound, the MIC (Candida albicans [26]) was 25 µg/mL (≈ 48 µM) and the MIC (Aspergillus niger [27]) was 25 µg/mL (≈ 48 µM).

In the case of `CC(=O)N1CCN(c2nc(Nc3ccc(C#N)c(C(F)(F)F)c3)nc(Oc3ncnc4ccccc34)n2)CC1`, the “inhibition zone (IZ)” value (Pseudomonas aeruginosa [2]) is reported as 27 mm, the MIC (Klebsiella pneumoniae [3]) is reported as 12.5 µg/mL (≈ 23.3 µM) and the MIC (Bacillus cereus [4]) is reported as 6.25 µg/mL (≈ 11.7 µM). The MIC (Aspergillus fumigatus [5]) was 25 µg/mL (≈ 46.7 µM), the MIC (Proteus vulgaris [6]) was 12.5 µg/mL (≈ 23.3 µM) and the “inhibition zone (IZ)” value (Staphylococcus aureus [7]) was 27 mm. The “inhibition zone (IZ)” value (Salmonella typhi [8]) was 24 mm, the MIC (Aspergillus clavatus [9]) was 12.5 µg/mL (≈ 23.3 µM) and the “inhibition zone (IZ)” value (Proteus vulgaris [10]) was 25 mm. The MIC (Escherichia coli [11]) was 6.25 µg/mL (≈ 11.7 µM), the MIC (Shigella flexneri [12]) was 100 µg/mL (≈ 187 µM) and the “inhibition zone (IZ)” value (Pseudomonas aeruginosa [13]) was “inactive”. The MIC (Pseudomonas aeruginosa [14]) was 12.5 µg/mL (≈ 23.3 µM), the “inhibition zone (IZ)” value (Shigella flexneri [15]) was 22 mm and the “inhibition zone (IZ)” value (Aspergillus fumigatus [16]) was 24 mm. The MIC (Salmonella typhi [17]) was 25 µg/mL (≈ 46.7 µM), the MIC [1] was greater than 6.25 µg/mL and the “inhibition zone (IZ)” value (Bacillus cereus [18]) was 26 mm. For the same compound, the MIC (Staphylococcus aureus [19]) was 12.5 µg/mL (≈ 23.3 µM), the “inhibition (percent inhibition)” value [20] was 96% and the MIC [20] was 12.5 µg/mL (≈ 23.3 µM). For the same compound, the “inhibition zone (IZ)” value (Aspergillus clavatus [21]) was 24 mm, the “inhibition zone (IZ)” value (Klebsiella pneumoniae [22]) was 25 mm and the “inhibition zone (IZ)” value (Candida albicans [23]) was 24 mm. The “inhibition zone (IZ)” value (Escherichia coli [24]) was 28 mm, the inhibition [28] was “inactive” and the “inhibition zone (IZ)” value (Aspergillus niger [25]) was 24 mm. It also gave an MIC (Candida albicans [26]) of 50 µg/mL (≈ 93.4 µM) and an MIC (Aspergillus niger [27]) of 25 µg/mL (≈ 46.7 µM).

`O=C(O)c1cn(C2CC2)c2cc(N3CCNCC3)c(F)cc2c1=O` [CIPROFLOXACIN] was tested, and the “inhibition zone (IZ)” value (Pseudomonas aeruginosa [2]) was 33 mm, the MIC (Bacillus cereus [4]) was 0.39 µg/mL (≈ 1.18 µM) and the MIC (Proteus vulgaris [6]) was 0.39 µg/mL (≈ 1.18 µM). The “inhibition zone (IZ)” value (Staphylococcus aureus [7]) was 30 mm, the “inhibition zone (IZ)” value (Salmonella typhi [8]) was 30 mm and the MIC (Shigella flexneri [12]) was 1.56 µg/mL (≈ 4.71 µM). For the same compound, the “inhibition zone (IZ)” value (Pseudomonas aeruginosa [13]) was “inactive”, the “inhibition zone (IZ)” value (Shigella flexneri [15]) was 32 mm and the “inhibition zone (IZ)” value (Aspergillus fumigatus [16]) was 29 mm. The MIC (Salmonella typhi [17]) was 0.39 µg/mL (≈ 1.18 µM), the MIC (Staphylococcus aureus [19]) was 1.56 µg/mL (≈ 4.71 µM) and the “inhibition zone (IZ)” value (Klebsiella pneumoniae [22]) was 33 mm. The “inhibition zone (IZ)” value (Candida albicans [23]) was 33 mm, the “inhibition zone (IZ)” value (Escherichia coli [24]) was 32 mm and the “inhibition zone (IZ)” value (Aspergillus niger [25]) was 30 mm. For the same compound, the MIC (Candida albicans [26]) was 1.56 µg/mL (≈ 4.71 µM) and the MIC (Aspergillus niger [27]) was 1.56 µg/mL (≈ 4.71 µM).

For `NNC(=O)c1ccncc1` [ISONIAZID], the MIC [1] was 0.2 µg/mL (≈ 1.46 µM).

In the case of `COc1ccc(CN2CCN(c3nc(Nc4ccc(C#N)c(C(F)(F)F)c4)nc(Oc4ncnc5ccccc45)n3)CC2)c(OC)c1OC`, the “inhibition zone (IZ)” value (Pseudomonas aeruginosa [2]) is reported as 26 mm, the MIC (Klebsiella pneumoniae [3]) is reported as 6.25 µg/mL (≈ 9.28 µM) and the MIC (Bacillus cereus [4]) is reported as 3.12 µg/mL (≈ 4.63 µM). For the same compound, the MIC (Aspergillus fumigatus [5]) was 6.25 µg/mL (≈ 9.28 µM), the MIC (Proteus vulgaris [6]) was 6.25 µg/mL (≈ 9.28 µM) and the “inhibition zone (IZ)” value (Staphylococcus aureus [7]) was 29 mm. For the same compound, the “inhibition zone (IZ)” value (Salmonella typhi [8]) was 25 mm, the MIC (Aspergillus clavatus [9]) was 6.25 µg/mL (≈ 9.28 µM) and the “inhibition zone (IZ)” value (Proteus vulgaris [10]) was 25 mm. The MIC (Escherichia coli [11]) was 6.25 µg/mL (≈ 9.28 µM), the MIC (Shigella flexneri [12]) was 25 µg/mL (≈ 37.1 µM) and the “inhibition zone (IZ)” value (Pseudomonas aeruginosa [13]) was “inactive”. The MIC (Pseudomonas aeruginosa [14]) was 12.5 µg/mL (≈ 18.6 µM), the “inhibition zone (IZ)” value (Shigella flexneri [15]) was 24 mm and the “inhibition zone (IZ)” value (Aspergillus fumigatus [16]) was 25 mm. For the same compound, the MIC (Salmonella typhi [17]) was 25 µg/mL (≈ 37.1 µM), the “inhibition (INH)” value [1] was 99% and the MIC [1] was 6.25 µg/mL (≈ 9.28 µM). For the same compound, the “inhibition zone (IZ)” value (Bacillus cereus [18]) was 27 mm, the MIC (Staphylococcus aureus [19]) was 3.12 µg/mL (≈ 4.63 µM) and the “inhibition (percent inhibition)” value [20] was 99%. The MIC [20] was 6.25 µg/mL (≈ 9.28 µM), the “inhibition zone (IZ)” value (Aspergillus clavatus [21]) was 25 mm and the “inhibition zone (IZ)” value (Klebsiella pneumoniae [22]) was 26 mm. For the same compound, the “inhibition zone (IZ)” value (Candida albicans [23]) was 26 mm, the “inhibition zone (IZ)” value (Escherichia coli [24]) was 28 mm and the “inhibition zone (IZ)” value (Aspergillus niger [25]) was 25 mm. The MIC (Candida albicans [26]) was 12.5 µg/mL (≈ 18.6 µM) and the MIC (Aspergillus niger [27]) was 6.25 µg/mL (≈ 9.28 µM).
